Experimental findings from PubChem BioAssay AID720632 (Broad Institute, 2013) are described below.

Activity calls are given as the source filed them. How the calls were made is not given here.

For the first assay, the target named is Caspase-6 (Homo sapiens) (UniProt P55212). The assay can be described thus: human caspase-6 inhibitors, dose response, biochemical, VEID-R110 fluorescence, cherry-pick (AID 720632). To be noted: caspase-6, VEID-R110 fluorogenic substrate.
Chain of Caspase-6 (Homo sapiens) (P55212 24-179 limits assumed): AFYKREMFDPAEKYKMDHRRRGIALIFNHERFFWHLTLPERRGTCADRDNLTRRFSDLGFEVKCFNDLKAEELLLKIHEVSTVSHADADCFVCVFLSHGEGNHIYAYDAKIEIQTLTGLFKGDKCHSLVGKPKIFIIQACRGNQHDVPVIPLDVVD
Chain of Caspase-6 (Homo sapiens) (P55212 194-293 limits assumed): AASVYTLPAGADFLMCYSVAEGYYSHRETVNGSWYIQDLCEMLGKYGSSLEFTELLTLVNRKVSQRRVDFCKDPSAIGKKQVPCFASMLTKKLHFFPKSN
`C[c-]1[c-](C)[c-](C)[c-](C)[c-]1C.[Fe].c1cc2nccc(N3CCCC3)[c-]2c1` (stereo not drawn): the half-maximal activity concentration (AC50) (in general, the midpoint of the concentration-response curve, whichever way the signal moves) is 5.86 µM.

Still in this assay, the particulars now being: caspase-6, VEID-R110 fluorogenic substrate; at 26 µM (top of the series).
Turning to `O=C(Nc1cccc(C(=O)N2CCOCC2)c1)c1ccc([N+](=O)[O-])cc1`, the “activity change, negative = inhibition” value was “inactive”.
On the same count and under the same terms, to `Cc1cc2c(NC(=O)Nc3ccc(C(F)(F)F)cc3)cccc2nn1` belongs “inactive”.
The same measure, in the same setting: to `CCCC(=O)Nc1ccc2c(c1)OC[C@H](C)N(Cc1ccc(F)cc1)C[C@@H](C)[C@H](OC)CN(C)C2=O` belongs “inactive”.
Same read-out and setting: to `CCN(CC)C1CCN(Cc2c(C(=O)N3CCCCCCC3)nc3ccc(Cl)cn23)C1` (stereo not drawn) belongs “inactive”; to `CCCN1C[C@H](C)[C@H](OC)CN(C)C(=O)c2ccc(NC(=O)CC)cc2OC[C@H]1C`, “inactive”.
Take `CSCCC(NC(=O)COc1ccccc1)C(=O)N(C)CC(=O)Nc1c(C)cccc1C` (stereo not drawn): the “activity change, negative = inhibition” value was “inactive”.
Same read-out and setting: to `CN1c2ccccc2Sc2cc(N)ccc21` belongs “inactive”.
Same read-out and setting: as for `C=C1[C@H](C)CN[C@H]1CCO`, the entry is “inactive”.
Same read-out and setting: to `COc1ccc(CCNC(=O)c2c(C)noc2C)cc1` belongs “inactive”.
As for `c1ccc(CCNc2ccc3ncc(-c4cccc5ccccc45)n3n2)nc1`, the “activity change, negative = inhibition” value was “inactive”.
The same measure, in the same setting: as for `O=C(N/N=C\c1ccc([N+](=O)[O-])o1)c1cncc(Br)c1`, the entry is “inactive”; as for `CCCc1cc(-c2n[nH]c(C(=O)OCC)c2-c2cscn2)c(O)cc1O`, “inactive”.
Same read-out and setting: as for `COc1ccccc1C(=O)Nc1ccc2c(c1)OC[C@H](C)N(CC1CC1)C[C@H](C)[C@H](OC)CN(C)C2=O`, the entry is “inactive”.
Still for that read-out and setting: as for `C#CCOc1ccc(CNC[C@H]2O[C@@H](n3ccc(N)nc3=O)[C@H](O)[C@@H]2O)cc1`, the entry is “inactive”.
On to `C[C@H](CO)N1C[C@H](C)[C@@H](CN(C)C(=O)c2ccncc2)OCc2cnnn2CCCC1=O`, for which the “activity change, negative = inhibition” value was “inactive”.
The same measure, in the same setting: to `Cc1nc2ccccc2c(=O)n1-c1ccc(NS(=O)(=O)c2ccc(F)cc2F)cc1` belongs “inactive”; to `Cc1ccc2c(c1)c1c(n2CC(O)CN2CCC(C)CC2)CCCC1` (stereo not drawn), “inactive”; to `CC(C)c1ccc(C(=O)N2CCCC(c3cc(C(=O)Nc4ccccc4Cl)no3)C2)cc1` (stereo not drawn), “inactive”.
On the same count and under the same terms, as for `COC(=O)c1ccc(CNC(=O)COC(=O)c2ccccc2-c2ccccc2)cc1`, the entry is “inactive”; as for `COC(=O)[C@H]1[C@H](CO)[C@H]2Cn3c(cccc3=O)[C@H]2N1CC1CCOCC1`, “inactive”.
Same read-out and setting: to `CCC(=O)N1CCC1(C)C(=O)Nc1cccc2cccnc12` (stereo not drawn) belongs “inactive”; to `OCc1ccccc1-c1nc(NCc2ccccc2)nc2ccsc12`, “inactive”; to `CCC(=O)Nc1ccc2c(c1)OC[C@@H](C)N(C(=O)CC)C[C@@H](C)[C@@H](OC)CN(C)C2=O`, “inactive”.
Regarding `COc1ccc(NC(=O)Nc2ccccc2F)c([N+](=O)[O-])c1`, the “activity change, negative = inhibition” value was “inactive”.
On the same count and under the same terms, as for `CO[C@@H]1CN(C)C(=O)c2ccc(NC(=O)C3CC3)cc2OC[C@H](C)N(Cc2cccc(F)c2)C[C@@H]1C`, the entry is “inactive”; as for `CN1N=C(C(C)(C)C)CSC1=Nc1ccccc1`, “inactive”.
Same read-out and setting: to `O=C(O)c1cccc(Nc2ccnc(Nc3cccc(C(=O)O)c3)n2)c1` belongs “inactive”; to `CCC(=O)Nc1ccc2c(c1)OC[C@@H](C)N(Cc1ccccc1)C[C@@H](C)[C@@H](OC)CN(C)C2=O`, “inactive”.
The same measure, in the same setting: as for `COC(=O)c1ccc(COc2cc([N+](=O)[O-])cc3cccnc23)o1`, the entry is “inactive”; as for `COc1ccccc1C(=O)Nc1ccc2c(c1)OC[C@@H](C)N(CC1CC1)C[C@@H](C)[C@@H](OC)CN(C)C2=O`, “inactive”.
Take `O=C(COC(=O)Cc1ccc(S(=O)(=O)N2CCOCC2)s1)Nc1ccc(F)cc1F`: the “activity change, negative = inhibition” value was “inactive”.
The same measure, in the same setting: as for `CCCC(=O)Nc1ccc2c(c1)OC[C@@H](C)NC[C@@H](C)[C@@H](OC)CN(C)C2=O`, the entry is “inactive”; as for `O=C(N/N=C/c1cccnc1)c1cc(O)c(O)c(O)c1`, “inactive”; as for `Cc1cccc(N2CCN(C(=O)CCCn3c(=S)[nH]c4cc5c(cc4c3=O)OCO5)CC2)c1C`, “inactive”.
For the compound `Cc1ccc(-c2[nH]c3cc(C(=O)NCCCn4ccnc4)ccc3c(=O)c2O)cc1`, the “activity change, negative = inhibition” value is “inactive”.
On the same count and under the same terms, to `Cc1ccc([N+](=O)[O-])cc1S(=O)(=O)Nc1ccc(C(=O)N2CCN(C(=O)c3ccco3)CC2)cc1` belongs “inactive”; to `CCCN1C[C@@H](C)[C@@H](OC)CN(C)C(=O)c2ccc(NC(=O)CC)cc2OC[C@@H]1C`, “inactive”; to `COc1ccccc1C(=O)Nc1ccc2c(c1)OC[C@@H](C)N(CC1CC1)C[C@H](C)[C@H](OC)CN(C)C2=O`, “inactive”.
The same measure, in the same setting: as for `O=C(O)C1C=Cc2ccccc2N1C(=O)c1ccccc1` (stereo not drawn) (tested in a mixture with another compound), the entry is “inactive”.
On the same count and under the same terms, as for `C=CCNc1nc(Nc2cc(Cl)ccc2OC)nc(OC)n1`, the entry is “inactive”; as for `O=C([C@H]1[C@H](CO)[C@H]2Cn3c(cccc3=O)[C@H]2N1Cc1cc(F)ccc1F)N1CCOCC1`, “inactive”; as for `CN=C(Nc1cccnc1)c1cccc(C(F)(F)F)c1`, “inactive”.
For the compound `CO[C@H]1CN(C)C(=O)c2ccc(NC(=O)C3CC3)cc2OC[C@@H](C)N(Cc2cccc(F)c2)C[C@H]1C`, the “activity change, negative = inhibition” value was “inactive”.
On the same count and under the same terms, as for `COc1ccccc1C(=O)Nc1ccc2c(c1)OC[C@H](C)N(CC1CC1)C[C@@H](C)[C@@H](OC)CN(C)C2=O`, the entry is “inactive”; as for `Cc1cnc(NC(=O)c2ccc3c(c2)OCCO3)s1`, “inactive”; as for `COCCn1c(SCCN2CCOCC2)nc2c1c(=O)[nH]c(=O)n2C`, “inactive”.
On the same count and under the same terms, to `CCCN1C[C@H](C)[C@H](OC)CN(C)C(=O)c2ccc(NC(=O)CC)cc2OC[C@@H]1C` belongs “inactive”; to `CCC1=NN(C(=O)c2ccccc2O)C(O)(c2ccccc2)C1` (stereo not drawn), “inactive”; to `Cc1nc2ccc(NS(=O)(=O)c3c(F)cc(F)cc3Br)cc2s1`, “inactive”.
Still for that read-out and setting: to `COc1cc(CN2CCc3ccccc3C2)cc([N+](=O)[O-])c1O` belongs “inactive”; to `C#CC(C)(C)NC(=O)c1ccc(-c2ccccc2F)cc1`, “inactive”.
`O=C(CCCn1c(=S)[nH]c2cc3c(cc2c1=O)OCO3)N1CCN(c2ccc(F)cc2)CC1`: the “activity change, negative = inhibition” value is “inactive”.
Still for that read-out and setting: to `CC(C)C(=O)N1CCN(c2ccccc2NC(=O)c2cccc3ccccc23)CC1` belongs “inactive”.
The same measure, in the same setting: to `Cc1ccc(NC(=O)c2sc(C)nc2C)c(C)c1` belongs “inactive”; to `CC(C)=NNc1cc([N+](=O)[O-])cc2c1C(=O)N(C)S2=O` (stereo not drawn), “inactive”; to `COc1ccc(/C(C)=N/N2CCCCC2)c(O)c1`, “inactive”.
Still for that read-out and setting: to `O=C(COC(=O)c1ccc([N+](=O)[O-])o1)Nc1ccc(F)cc1` belongs “inactive”; to `CC1(C)C(=O)Nc2ccccc2N1C(=O)COC(=O)c1ccc([N+](=O)[O-])o1`, “inactive”; to `COc1ccc(N(C)S(=O)(=O)c2cccc(C(=O)NCC(c3cccs3)N(C)C)c2)cc1` (stereo not drawn), “inactive”.
Consider `COc1cccc(N2C(=O)NC(=O)/C(=C/c3ccc([N+](=O)[O-])s3)C2=O)c1`, for which the “activity change, negative = inhibition” value was “inactive”.
Same read-out and setting: to `CCN(C(=O)COC(=O)CNC(=O)c1ccc2ccccc2c1)C1CCS(=O)(=O)C1` (stereo not drawn) belongs “inactive”; to `O=C(CCCCCn1c(=S)[nH]c2cc3c(cc2c1=O)OCO3)N1CCN(C2CCCCC2)CC1`, “inactive”.
The same measure, in the same setting: to `COc1cc(N)c2ncccc2c1Cl` belongs “inactive”; to `Cc1cc(C)cc(N(CC(=O)NC(C)C)C(=O)CCC(=O)Nc2ccccn2)c1`, “inactive”; to `Cc1cccc(C)c1OCC(=O)NCc1ccccc1`, “inactive”.
Same read-out and setting: to `COc1ccc(S(=O)(=O)Nc2ccc(O)c(Sc3ncn[nH]3)c2)cc1` belongs “inactive”; to `N/C(Cc1cccc2ccccc12)=N\OC(=O)c1ccccc1F`, “inactive”; to `COc1cc(N)c(Cl)cc1C(=O)NC1CCN(Cc2ccccc2)CC1`, “inactive”.
Consider `O=C(N/N=C/c1oc(O)c2ccccc12)c1ccccc1O`, for which the “activity change, negative = inhibition” value was “inactive”.
The same measure, in the same setting: to `O=C(NC1CCCCC1)C(c1ccnc2ccccc12)N1CCc2ccccc2C1` (stereo not drawn) belongs “inactive”; to `CC1CC(C)CN(S(=O)(=O)c2ccc(F)c(C(=O)NC3CCCCC3C)c2)C1` (stereo not drawn), “inactive”.
On the same count and under the same terms, to `CCCN1C[C@H](C)[C@@H](OC)CN(C)C(=O)c2ccc(NC(=O)c3ccccc3)cc2OC[C@H]1C` belongs “inactive”.
